Compared with `CNCCN(C)C(=O)OC(Cc1ccccc1)C(=O)N(C)C(Cc1c[nH]cn1)C(=O)NC(CC1CCCCC1)C(O)CCC(C)C` (configuration not stated), `CC(C)(C)OC(=O)C[C@@H](CC1CCCC1)C(=O)N1C(=O)OC[C@@H]1Cc1ccccc1` is higher in melting point: 65 to 68 °C for the first, 113 to 119 °C for the second.

First: O=C(O)CS(=O)(=O)c1ccc2c(-c3ccc(Cl)cc3)noc2c1Cl
Second: Cc1cccc2c(-c3ccc(Cl)cc3)noc12
The melting point of the first is higher: 212 to 213 °C for the first, 88 to 90 °C for the second.

First: N#CCC(=O)c1ccccc1C1(c2ccccc2)OCC(CCl)O1 (configuration not stated)
Second: N#Cc1ccccc1N1CCN(CNC(=O)c2ccccc2)CC1
The melting point of the first is lower: 107 to 110 °C for the first, 148 to 150 °C for the second.

First: Nc1ccc2c(c1)nc(/C=C/c1ccccc1)n2-c1ccccn1
Second: Cc1n[nH]c(/C=C/c2ccccc2)n1
The melting point of the first is higher: 146 to 148 °C for the first, 131 to 134 °C for the second.

First: COc1nccc(N[C@H]2CC[C@H](c3ccccc3)CC2)c1Br
Second: Cc1nc2c3c(ccn2c1C)[C@@H](OCC(F)(F)F)[C@H](O)[C@@H](c1ccccc1)N3
The melting point of the first is lower: 105 °C for the first, 178 to 180 °C for the second.

First: Cc1c(-c2ccccc2)c(N2CC(N(C)C)C2)c2oc(C(C)(C)C)nc2c1C#N
Second: CC(C)(C)c1ccc(C2(C)CC(=Cc3ccccc3)CC2=O)cc1 (configuration not stated)
The melting point of the first is higher: 211 to 212 °C for the first, 140 to 143 °C for the second.

Compared with `CC(C)(CF)C(=O)C(Br)Oc1ccc(Cl)cc1` (configuration not stated), `Cc1c(CC(=O)O)cccc1C(=O)c1ccc(Cl)cc1` is higher in melting point: 73 to 75 °C for the first, 152 °C for the second.

Compared with `COC(=O)c1ccc(S(C)(=O)=O)c(C2=NOC(C)(OC)C2)c1Cl` (configuration not stated), `COc1cc(C)c(Cl)c2c(=O)oc3c(c12)C(=O)c1cccc(O)c1C3=O` is higher in melting point: 100 to 105 °C for the first, 294 to 296 °C for the second.

Compared with `CCN(CC)CCOc1ccc(Nc2ncc3c(n2)N(C)C(=O)N(C)C3)cc1`, `CCN(C1CCN(Cc2ccccc2)C1)S(=O)(=O)c1ccc(Nc2nccc(Nc3ccc(F)cc3)n2)cc1` (configuration not stated) is lower in melting point: 186 °C for the first, 125 to 127 °C for the second.

First: COc1ccccc1C=C1NC(=O)N(C)C1=O
Second: Cc1cc(=O)[nH]n(Cc2ccccc2)c1=O
The melting point of the first is lower: 189 to 190 °C for the first, > 200 °C for the second.

Compared with `C=CCOC(=O)C1=C(C)NC(C)=C(C(=O)OC)C1c1ccccc1F` (configuration not stated), `CCOC(=O)Cc1sc(NC(=O)Nc2ccccc2)nc1-c1ccc(Cl)cc1` is higher in melting point: 130 °C for the first, 192 to 193 °C for the second.

Compared with `O=C1Nc2cccnc2N(C(=O)N2CCCC(CCCN3CCCCC3)C2)c2ccccc21` (configuration not stated), `O=c1[nH]c2sccc2c(=O)n1CCN1CCN(c2ccccc2Cl)CC1` is higher in melting point: 123 to 125 °C for the first, 216 to 217 °C for the second.

First: O=[N+]([O-])c1nccn1C1CCCO1 (configuration not stated)
Second: CN(C)C(=S)n1cnc(S(=O)(=O)CC2CCCC2)n1
The melting point of the first is higher: 91 °C for the first, 65 °C for the second.

First: C[N+](C)([O-])c1ccc(/C=C/c2c(F)cccc2F)cc1
Second: Cc1c(-c2ccccc2)n(-c2c(F)cccc2F)c(-c2ccccc2)cc1=O
The melting point of the first is lower: 100 to 103 °C for the first, 219 to 221 °C for the second.

First: Clc1ccccc1C=C(CBr)c1ccccc1
Second: O=C(SCC(=O)N1c2ccccc2CCC1C(=O)O)c1ccccc1 (configuration not stated)
The melting point of the first is lower: 78 °C for the first, 164 to 168 °C for the second.

Compared with `Cc1nc2c(C(=O)NC(C)(C(N)=O)C(C)C)cc(C(=O)O)cc2n1C` (configuration not stated), `Nc1nc(-n2cc(C(=O)O)c(=O)c3cc(F)c(NCC(O)CO)c(Cl)c32)c(F)cc1F` (configuration not stated) is lower in melting point: 246 to 248 °C for the first, 166 to 169 °C for the second.

Compared with `N=C(N)c1ccc(C(=O)N[C@@H](Cc2ccccc2)C(=O)N2CCc3nn(CC(=O)O)cc3C2)cc1`, `O=C(NO)c1ccc2c(c1)CN(C(=O)c1ccc(-c3ccccc3)cc1)C2` is higher in melting point: 146 to 150 °C for the first, 160 to 190 °C for the second.

First: Cc1ccc(C(=O)O)c(Nc2ccc3[nH]ncc3c2)n1
Second: CNC(=O)c1ccccc1C(O)c1ccc(F)cc1 (configuration not stated)
The melting point of the first is higher: 252 to 254 °C for the first, 133 to 134 °C for the second.

First: COc1ccc(CNC(=O)N(C)O)cc1OC
Second: COc1ccc(NC(=O)/C=C/c2c(OC)cc(OC)cc2OC)cc1
The melting point of the first is lower: 132 to 133 °C for the first, 198 to 200 °C for the second.

Compared with `CC(C)NC1=NS(=O)(=O)c2c(Cl)cccc2N1`, `CC(C)c1c(C(=O)Cl)n(-c2ccc(F)cc2)c(=O)c2ccccc12` is lower in melting point: 144 to 146 °C for the first, 113 to 115 °C for the second.

First: CCCOc1c(OC)cc(C=O)cc1S(=O)(=O)CCO
Second: CCCCC(CC)COc1cc(CCl)c(OC)cc1CCl (configuration not stated)
The melting point of the first is higher: 111 to 112 °C for the first, 58 to 60 °C for the second.

Compared with `Cc1cc(-c2ccc(S(C)(=O)=O)cc2)n(-c2ccc(-c3ccoc3)cc2)c1C`, `CC(C)c1ccccc1Sc1c(O)cc(-c2ccc(-c3cccnc3)cc2)oc1=O` is lower in melting point: 215 to 219 °C for the first, 145 to 147 °C for the second.

First: CCOC(=O)Cc1c2c(nn1-c1ccccc1)c(=O)[nH]c1ccccc12
Second: CCOC(=O)N1CCN(c2nn(-c3ccc(F)cc3)c3ccccc23)CC1
The melting point of the first is higher: 301 to 303 °C for the first, 109 to 111 °C for the second.

First: CCOC(=O)CC(NC(=O)c1ccccc1)C(=O)c1cccs1 (configuration not stated)
Second: CN(C)CCC(Cc1ccccc1C(=O)O)c1ccccc1 (configuration not stated)
The melting point of the first is lower: 75 °C for the first, 152 to 154 °C for the second.

First: CC(C)(C)C(=O)OCOC(=O)Cc1ccc(O)cc1
Second: CC(C)(C)OC(=O)C(Cc1ccccc1)c1ccc([N+](=O)[O-])cc1 (configuration not stated)
The melting point of the first is higher: 159 to 161 °C for the first, 98 to 99 °C for the second.

Compared with `Cn1c(C(=O)N2CCC[C@@H]3CCCC[C@H]32)cc2ccccc21` (relative stereo), `Cc1c(N2CCC(n3cccc3)CC2)c(F)cn2c(=O)c(C(=O)O)cc(C3CC3)c12` is higher in melting point: 87 to 90 °C for the first, 268 to 269 °C for the second.

Compared with `CC(CC(O)(C(=O)O)C(F)(F)F)c1ccccc1` (configuration not stated), `Cc1cc(C)nc(NC(=N)Nc2ccccc2C(F)(F)F)n1` is higher in melting point: 145 to 146 °C for the first, 161 to 162 °C for the second.

Compared with `Cc1ccc(Oc2ccc([N+](=O)[O-])cc2-c2ncon2)c(O)c1`, `O=C1c2ccc(Cl)cc2C(=O)N1c1ccc([N+](=O)[O-])cc1Cl` is higher in melting point: 159 to 160 °C for the first, 209 to 212 °C for the second.

Compared with `CC(C(=O)O)c1ccc(I)cc1` (configuration not stated), `COC(=O)C(c1ccc(NC(C)=O)cc1)C1CC1` (configuration not stated) is higher in melting point: 101 to 102 °C for the first, 159 to 162 °C for the second.

First: Cc1cc2cc(CN3CCC(CCC(=O)N4CCCCC4)CC3)cnc2cc1NC(=O)c1ccc(-c2ccc(F)cc2)cc1
Second: O=C1c2cccc3c(Cl)ccc(c23)C(=O)N1CCN1CCC(c2noc3cc(F)ccc23)CC1
The melting point of the first is lower: 189 to 191 °C for the first, 207 to 209 °C for the second.

First: COc1cc2nc(N3CCN(c4nc5ccccc5s4)CC3)nc(N)c2cc1OC
Second: COc1ccc(C2(C)C(=O)Nc3cc(N4CCN(C)CC4)cc(Cl)c3C2=O)cc1 (configuration not stated)
The melting point of the first is higher: 242 to 245 °C for the first, 201 to 202 °C for the second.

First: CCNC(=O)NC(N)=O
Second: CCNC(=S)Nc1nccs1
The melting point of the first is higher: 158 to 160 °C for the first, 135 to 136 °C for the second.

Compared with `COc1ccc(S(=O)(=O)N2C(=O)C(OC(=O)N3CCN(c4ccncc4)CC3)(c3ccccc3OC(C)C)c3cc(Cl)ccc32)c(OC)c1` (configuration not stated), `CN1CCN(Cc2nc(C(N)=O)nn2-c2ccc(Cl)cc2C(=O)c2ccccc2Cl)CC1` is higher in melting point: 160 to 164 °C for the first, 167 to 169 °C for the second.

Compared with `CC(=O)c1ccc(CCNS(=O)(=O)c2ccc(C)cc2)cc1`, `C=CCOc1ccc2c(c1)c(-c1cc3cccnc3n1S(=O)(=O)c1ccc(C)cc1)cn2C` is higher in melting point: 124 to 126 °C for the first, 257 to 259 °C for the second.

First: Cc1nc(-c2ccc(C#N)cc2)cn1-c1ccc(C#N)cc1
Second: COc1ccc(-c2cc(Nn3cnnc3)ccc2C#N)cc1
The melting point of the first is higher: 212 to 220 °C for the first, 176 to 177 °C for the second.

First: CCOc1c(C(F)(F)F)cc([N+](=O)[O-])c2nc(C(F)(F)F)[nH]c12
Second: CC(c1n[nH]c(=O)[nH]1)N1CCC[C@H](O[C@H](C)c2cc(C(F)(F)F)cc(C(F)(F)F)c2)[C@@H]1c1ccccc1 (some centres not stated)
The melting point of the first is lower: 144 to 146 °C for the first, 257 to 258 °C for the second.

First: O=C1CCC(c2cccc(O)c2)N1Cc1ccncc1 (configuration not stated)
Second: Clc1ccc2c(c1)CCC(c1cccnc1)O2 (configuration not stated)
The melting point of the first is higher: 148 to 150 °C for the first, 60 to 63 °C for the second.

Compared with `Nc1scc2c(C(=O)NC3CC3)nn(-c3ccc(Cl)cc3)c(=O)c12`, `CCC(OC(=O)C1CC1)c1ccc(Cl)c2nc3n(c12)CCCN3c1ccc(OC)cc1Cl` (configuration not stated) is lower in melting point: 188 to 190 °C for the first, 130 to 132 °C for the second.

First: O=C1C(=O)N(CCCN2CCN(C(c3ccccc3)(c3ccccc3)c3ccccc3)CC2)c2ccccc21
Second: O=S(=O)(Cc1cccc2ccccc12)c1ccccc1
The melting point of the first is higher: 145 to 149 °C for the first, 89 °C for the second.

Compared with `Cc1c(-c2cccc(O)c2O)c(=O)oc2cc(O)ccc12`, `O=C1CC(c2ccc(Cl)cc2Cl)c2cc(Br)ccc2O1` (configuration not stated) is lower in melting point: 273 to 274 °C for the first, 117 to 118 °C for the second.

First: O=C(C=Cc1cccc(NC(=O)C=Cc2ccccc2)c1)NO
Second: COc1ccc(C(=O)Nc2ccccc2)c2c1oc1ccc(NC(C)=O)cc12
The melting point of the first is lower: 178 °C for the first, 252 °C for the second.

First: COc1ccc(N2CCN(c3c(C)c(C)c4c(c3C)CC(C)(C)O4)CC2)cc1F
Second: CN1CCN(C2=Nc3cc(Br)ccc3N3CCc4cccc2c43)CC1
The melting point of the first is higher: 161 to 163 °C for the first, 153 to 155 °C for the second.

First: COc1cc(CC(C#N)=CN2CCOCC2)cc(OC)c1N
Second: Nc1cc(OC2CCNCC2)c(F)c2c1c(=O)c(C(=O)O)cn2C1CC1
The melting point of the first is lower: 128 to 129 °C for the first, > 300 °C for the second.

First: CC(=O)Nc1cc(N)cc([N+](=O)[O-])c1
Second: Cc1cc(OCc2ncc([N+](=O)[O-])n2C)ccc1S(C)=O (configuration not stated)
The melting point of the first is higher: 204 to 205 °C for the first, 121 °C for the second.

Compared with `Cn1nc(N)c(C(N)=O)c1N`, `NC(=O)OCCn1cc(C(N)=O)c([N+](=O)[O-])n1` is lower in melting point: 213 to 215 °C for the first, 191 to 194 °C for the second.

First: O=C(CSc1ccc(Cl)c(Cl)c1)C12CC3CC(CC(C3)C1)C2
Second: CC(Sc1ccc(Cl)cc1Cl)C(=O)O (racemic)
The melting point of the first is higher: 105 to 110 °C for the first, 95 to 98 °C for the second.

First: CNC(=O)c1nc(Cl)c(Cl)[nH]1
Second: CCC(Oc1cnc(Cl)c(Cl)c1)C(=O)O (configuration not stated)
The melting point of the first is higher: 240 °C for the first, 117 to 118 °C for the second.

First: Cc1cc(C(O)=S)c(Cl)cc1Cl
Second: CC(=O)NC[C@H]1CN(c2ccc3c(c2)CCSCC3=O)C(=O)O1
The melting point of the first is lower: 187 °C for the first, 232 to 233 °C for the second.

Compared with `COC(=O)c1c(C(C)C)nc2c(c1-c1ccc(F)cc1)CCCN2`, `O=C(NC[C@H]1CN(c2ccc3c(c2)CCCc2cn[nH]c2-3)C(=O)O1)C(F)F` is lower in melting point: 168 to 170 °C for the first, 147 to 150 °C for the second.

Compared with `CCOC(=O)Nc1nc(C)co1`, `COC(=O)c1ccc(CCSC(C)=O)s1` is lower in melting point: 126 °C for the first, 67 to 68 °C for the second.

First: COCCOCc1c(CN(C)CC(O)c2ccc(C#N)s2)sc2c(=O)c(C(=O)NCc3ccc(Cl)cc3)cn(C)c12 (configuration not stated)
Second: CCOP(=O)(OCC)C1CCc2c(-n3cccc3)c(C(F)(F)F)cc3[nH]c(=O)c(=O)n1c23 (configuration not stated)
The melting point of the first is lower: 163 to 164 °C for the first, 268 °C for the second.

Reference: a melting point compilation (Tetko et al.; mined from patent text by program, amines drawn as free bases though some values may be those of a salt)
